This assay deals with human subject with diagnosed osteopenia. Briefly: Mineral bone density (forearm scanner DXT-200) and serum calcium in a subject with osteopenia. To be noted: after a one-month break in the administration, following six-month course of 1 g 3 times a day. Type of assay: in vivo. The procedure: A human subject. The mineral bone density of T−1.4 was measured in the distal antibrachium by means of the forearm scanner DXT-200 available from Osteometer MediTech, Inc. Osteopenia was diagnosed and 1 g of calcium gluconate was administered 3 times a day. A six-month course of preventive medication was conducted. […] That is, the mineral bone density (MBD) became less. […] For reference: MBD normal value—the values of T criterion with a standard deviation of +1 to −1 from the peak bone mass; • 1st degree osteopenia—MBD of −1 to −1.5; • 2nd degree osteopenia—MBD of −1.5 to −2; • 3rd degree osteopenia—MBD of −2 to −2.5; • 1st degree osteoporosis—MBD of −2.5 and less without fractures; • 2nd degree osteoporosis—MBD of −2.5 and less with osteoporotic bone fractures. The densitometric T scale presents the number of standard deviations up and down an average bone mass value. The T criterion decreases in parallel with a gradual reduction in the bone mass with age and is used to evaluate the MBD in adults.
The same human subject with diagnosed osteopenia and the mineral bone density of T −1.6 was administered one capsule of the claimed biologically active food additive 3 times a day A six-month preventive medication course was conducted following the pattern of one-month administration/one-month break. The mineral bone density increased to T −1.2. The serum calcium value normalized. […]

For calcium gluconate, the serum calcium value result was “below the normal value”.

Values taken from patent publication US9974856B2, “Method of treating androgen deficiency in women” (Parapharm Ltd., priority 2009, dated 2018).
